Laboratory results as given in publication PMC10035947, “Development of novel anilinoquinazoline-based carboxylic acids as non-classical carbonic anhydrase IX and XII inhibitors” (Journal of Enzyme Inhibition and Medicinal Chemistry, 2023).

Assays:
MDA-MB-468 = assay: NCI SRB assay; assay type: cell-based, human; conditions: for GI%: MDA-MB-468, 10 μM; for Growth Percent: MDA-MB-468, 1.00E-5 Molar
MALME-3M = assay: NCI SRB assay; assay type: cell-based, human; conditions: for GI%: 10 μM; for Growth Percent: 1.00E-5 Molar
786-0 = assay: NCI SRB assay; assay type: cell-based, human; conditions: for GI%: 786-0, 10 μM; for Growth Percent: 786-0, 1.00E-5 Molar
[1] = system: 59 human cancer cell lines representing nine tumour subpanels; assay: NCI SRB assay, panel and subpanel summaries; conditions: all cell lines; for Mean GI %: 10 μM; for Mean Growth Percent: 1.00E-5 Molar
OVCAR-8 = assay: NCI SRB assay; assay type: cell-based, human; conditions: for GI%: OVCAR-8, 10 μM; for Growth Percent: OVCAR-8, 1.00E-5 Molar
HCT-116 = assay: NCI SRB assay; assay type: cell-based, human; conditions: for GI%: HCT-116, 10 μM; for Growth Percent: HCT-116, 1.00E-5 Molar
SK-MEL-5 = assay: NCI SRB assay; assay type: cell-based, human; conditions: for GI%: SK-MEL-5, 10 μM; for Growth Percent: SK-MEL-5, 1.00E-5 Molar
HOP-62 = assay: NCI SRB assay; assay type: cell-based, human; conditions: for GI%: HOP-62, 10 μM; for Growth Percent: HOP-62, 1.00E-5 Molar
OVCAR-5 = assay: NCI SRB assay; assay type: cell-based, human; conditions: for GI%: OVCAR-5, 10 μM; for Growth Percent: OVCAR-5, 1.00E-5 Molar
NCI-H522 = assay: NCI SRB assay; assay type: cell-based, human; conditions: for GI%: NCI-H522, 10 μM; for Growth Percent: NCI-H522, 1.00E-5 Molar
SW-620 = assay: NCI SRB assay; assay type: cell-based, human; conditions: for GI%: SW-620, 10 μM; for Growth Percent: SW-620, 1.00E-5 Molar
TK-10 = assay: NCI SRB assay; assay type: cell-based, human; conditions: for GI%: TK-10, 10 μM; for Growth Percent: TK-10, 1.00E-5 Molar
KM12 = assay: NCI SRB assay; assay type: cell-based, human; conditions: for GI%: KM12, 10 μM; for Growth Percent: KM12, 1.00E-5 Molar
OVCAR-3 = assay: NCI SRB assay; assay type: cell-based, human; conditions: for GI%: OVCAR-3, 10 μM; for Growth Percent: OVCAR-3, 1.00E-5 Molar
MDA-MB-435 = assay: NCI SRB assay; assay type: cell-based; conditions: for GI%: MDA-MB-435, 10 μM; for Growth Percent: MDA-MB-435, 1.00E-5 Molar
U251 = assay: NCI SRB assay; assay type: cell-based, human; conditions: for GI%: U251, 10 μM; for Growth Percent: U251, 1.00E-5 Molar
COLO 205 = assay: NCI SRB assay; assay type: cell-based, human; conditions: for GI%: COLO 205, 10 μM; for Growth Percent: COLO 205, 1.00E-5 Molar
SNB-75 = assay: NCI SRB assay; assay type: cell-based, human; conditions: for GI%: SNB-75, 10 μM; for Growth Percent: SNB-75, 1.00E-5 Molar
M14 = assay: NCI SRB assay; assay type: cell-based, human; conditions: for GI%: M14, 10 μM; for Growth Percent: M14, 1.00E-5 Molar
SN12C = assay: NCI SRB assay; assay type: cell-based, human; conditions: SN12C; for GI%: 10 μM; for Growth Percent: 1.00E-5 Molar
HT29 = assay: NCI SRB assay; assay type: cell-based, human; conditions: for GI%: HT29, 10 μM; for Growth Percent: HT29, 1.00E-5 Molar
hCA II = target: T1, hCA II (Homo sapiens, UniProt P00918); assay: stopped flow CO2 hydrase assay; assay type: biochemical; conditions: mean from 3 assays
T1 construct: made in house
Outline: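 Stopped-flow CO2 hydration with phenol red (0.2 mM) at 557 nm in 20 mM Hepes pH 7.5, 20 mM Na2SO4, CO2 1.7–17 mM, recombinant enzyme. Inhibitor preincubated 15 min at room temperature; uncatalyzed rate subtracted, Ki via Cheng-Prusoff, mean of ≥3 determinations.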

HS 578 T = assay: NCI SRB assay; assay type: cell-based, human; conditions: for GI%: HS 578 T, 10 μM; for Growth Percent: HS 578T, 1.00E-5 Molar
NCI-H460 = assay: NCI SRB assay; assay type: cell-based, human; conditions: for GI%: NCI-H460, 10 μM; for Growth Percent: NCI-H460, 1.00E-5 Molar
PC-3 = assay: NCI SRB assay; assay type: cell-based, human; conditions: for GI%: PC-3, 10 μM; for Growth Percent: PC-3, 1.00E-5 Molar
HCC-2998 = assay: NCI SRB assay; assay type: cell-based, human; conditions: for GI%: HCC-2998, 10 μM; for Growth Percent: HCC-2998, 1.00E-5 Molar

## Cc1cccc(-c2nc(Nc3ccccc3C(=O)O)c3ccccc3n2)c1 [6a, 2-((2-(m-Tolyl)quinazolin-4-yl)amino)benzoic acid]
MDA-MB-468
  GI%: 115%
  Growth Percent: -15.06%
MALME-3M
  GI%: 63%
  Growth Percent: 37.17%
786-0
  GI%: 75%
  Growth Percent: 25.01%
[1]
  Mean GI %: 63%
  Mean Growth Percent: 37.30%
OVCAR-8
  GI%: 40%
  Growth Percent: 60.34%
HCT-116
  GI%: 78%
  Growth Percent: 22.67%
SK-MEL-5
  GI%: 94%
  Growth Percent: 6.01%
HOP-62
  GI%: 54%
  Growth Percent: 46.18%
OVCAR-5
  GI%: 23%
  Growth Percent: 77.00%
NCI-H522
  GI%: 40%
  Growth Percent: 59.94%
SW-620
  GI%: 65%
  Growth Percent: 35.45%
TK-10
  GI%: – (Only GI% higher than 20% are shown)
  Growth Percent: 85.85%
KM12
  GI%: 70%
  Growth Percent: 29.97%
OVCAR-3
  GI%: 66%
  Growth Percent: 34.15%
MDA-MB-435
  GI%: 55%
  Growth Percent: 44.63%
U251
  GI%: 73%
  Growth Percent: 26.61%
COLO 205
  GI%: – (Only GI% higher than 20% are shown)
  Growth Percent: 120.57%
SNB-75
  GI%: 45%
  Growth Percent: 55.27%
M14
  GI%: 75%
  Growth Percent: 25.25%
SN12C
  GI%: 59%
  Growth Percent: 40.74%
HT29
  GI%: 60%
  Growth Percent: 39.66%
hCA II
  Ki: 85.2 µM
HS 578 T
  GI%: 84%
  Growth Percent: 16.61%
NCI-H460
  GI%: 81%
  Growth Percent: 19.15%
PC-3
  GI%: 71%
  Growth Percent: 29.47%
HCC-2998
  GI%: 73%
  Growth Percent: 27.10%

## Cc1ccc(-c2nc(Nc3cccc(C(=O)O)c3)c3ccccc3n2)cc1 [7b, 3-((2-(p-Tolyl)quinazolin-4-yl)amino)benzoic acid]
MDA-MB-468
  GI%: – (Only GI% higher than 20% are shown)
  Growth Percent: 116.40%
MALME-3M
  GI%: – (Only GI% higher than 20% are shown)
  Growth Percent: 96.44%
786-0
  GI%: 24%
  Growth Percent: 76.25%
[1]
  Mean GI %: 14%
  Mean Growth Percent: 86.13%
OVCAR-8
  GI%: – (Only GI% higher than 20% are shown)
  Growth Percent: 91.56%
HCT-116
  GI%: 26%
  Growth Percent: 74.42%
SK-MEL-5
  GI%: – (Only GI% higher than 20% are shown)
  Growth Percent: 85.67%
HOP-62
  GI%: – (Only GI% higher than 20% are shown)
  Growth Percent: 84.19%
OVCAR-5
  GI%: – (Only GI% higher than 20% are shown)
  Growth Percent: 107.97%
NCI-H522
  GI%: – (Only GI% higher than 20% are shown)
  Growth Percent: 86.87%
SW-620
  GI%: – (Only GI% higher than 20% are shown)
  Growth Percent: 94.08%
TK-10
  GI%: – (Only GI% higher than 20% are shown)
  Growth Percent: 115.15%
KM12
  GI%: 32%
  Growth Percent: 68.03%
OVCAR-3
  GI%: – (Only GI% higher than 20% are shown)
  Growth Percent: 85.56%
MDA-MB-435
  GI%: – (Only GI% higher than 20% are shown)
  Growth Percent: 100.82%
U251
  GI%: 21%
  Growth Percent: 78.70%
COLO 205
  GI%: – (Only GI% higher than 20% are shown)
  Growth Percent: 124.60%
SNB-75
  GI%: – (Only GI% higher than 20% are shown)
  Growth Percent: 91.06%
M14
  GI%: – (Only GI% higher than 20% are shown)
  Growth Percent: 83.59%
SN12C
  GI%: 23%
  Growth Percent: 76.64%
HT29
  GI%: – (Only GI% higher than 20% are shown)
  Growth Percent: 105.90%
hCA II
  Ki: 41.7 µM
HS 578 T
  GI%: 34%
  Growth Percent: 65.83%
NCI-H460
  GI%: – (Only GI% higher than 20% are shown)
  Growth Percent: 97.53%
PC-3
  GI%: – (Only GI% higher than 20% are shown)
  Growth Percent: 80.52%
HCC-2998
  GI%: – (Only GI% higher than 20% are shown)
  Growth Percent: 94.40%

## Cc1ccc(-c2nc(Nc3ccc(C(=O)O)cc3)c3ccccc3n2)cc1 [8b, 4-((2-(p-Tolyl)quinazolin-4-yl)amino)benzoic acid]
MDA-MB-468
  GI%: – (Only GI% higher than 20% are shown)
  Growth Percent: 108.74%
MALME-3M
  GI%: – (Only GI% higher than 20% are shown)
  Growth Percent: 101.05%
786-0
  GI%: – (Only GI% higher than 20% are shown)
  Growth Percent: 85.63%
[1]
  Mean GI %: 20%
  Mean Growth Percent: 80.19%
OVCAR-8
  GI%: – (Only GI% higher than 20% are shown)
  Growth Percent: 81.90%
HCT-116
  GI%: 22%
  Growth Percent: 77.19%
SK-MEL-5
  GI%: 28%
  Growth Percent: 71.66%
HOP-62
  GI%: – (Only GI% higher than 20% are shown)
  Growth Percent: 88.98%
OVCAR-5
  GI%: – (Only GI% higher than 20% are shown)
  Growth Percent: 95.98%
NCI-H522
  GI%: – (Only GI% higher than 20% are shown)
  Growth Percent: 91.02%
SW-620
  GI%: – (Only GI% higher than 20% are shown)
  Growth Percent: 91.47%
TK-10
  GI%: – (Only GI% higher than 20% are shown)
  Growth Percent: 113.38%
KM12
  GI%: 42%
  Growth Percent: 57.97%
OVCAR-3
  GI%: 20%
  Growth Percent: 79.51%
MDA-MB-435
  GI%: – (Only GI% higher than 20% are shown)
  Growth Percent: 100.06%
U251
  GI%: – (Only GI% higher than 20% are shown)
  Growth Percent: 86.94%
COLO 205
  GI%: – (Only GI% higher than 20% are shown)
  Growth Percent: 109.50%
SNB-75
  GI%: – (Only GI% higher than 20% are shown)
  Growth Percent: 95.80%
M14
  GI%: – (Only GI% higher than 20% are shown)
  Growth Percent: 80.88%
SN12C
  GI%: 51%
  Growth Percent: 48.99%
HT29
  GI%: – (Only GI% higher than 20% are shown)
  Growth Percent: 87.37%
hCA II
  Ki: 3.9 µM
HS 578 T
  GI%: 32%
  Growth Percent: 67.76%
NCI-H460
  GI%: – (Only GI% higher than 20% are shown)
  Growth Percent: 82.06%
PC-3
  GI%: 23%
  Growth Percent: 77.04%
HCC-2998
  GI%: 28%
  Growth Percent: 72.45%
